Results as given in ChEMBL document CHEMBL1150338, “Prediction and identification of drug interactions with the human ATP-binding cassette transporter multidrug-resistance associated protein 2 (MRP2; ABCC2)” (J Med Chem, 2008).
Counter-ions that a name gives are not always drawn.

Target: MRP2 (ABCC2) (Homo sapiens, UniProt Q92887)
Experiment: in vitro
[1] = probe estradiol-17-beta-glucuronide
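Further: Inside-out membrane vesicles from Sf9 insect cells expressing human MRP2, measuring uptake of the estradiol glucuronide substrate, expressed as percent of untreated control.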

Chain of MRP2 (ABCC2) (Q92887 whole entry): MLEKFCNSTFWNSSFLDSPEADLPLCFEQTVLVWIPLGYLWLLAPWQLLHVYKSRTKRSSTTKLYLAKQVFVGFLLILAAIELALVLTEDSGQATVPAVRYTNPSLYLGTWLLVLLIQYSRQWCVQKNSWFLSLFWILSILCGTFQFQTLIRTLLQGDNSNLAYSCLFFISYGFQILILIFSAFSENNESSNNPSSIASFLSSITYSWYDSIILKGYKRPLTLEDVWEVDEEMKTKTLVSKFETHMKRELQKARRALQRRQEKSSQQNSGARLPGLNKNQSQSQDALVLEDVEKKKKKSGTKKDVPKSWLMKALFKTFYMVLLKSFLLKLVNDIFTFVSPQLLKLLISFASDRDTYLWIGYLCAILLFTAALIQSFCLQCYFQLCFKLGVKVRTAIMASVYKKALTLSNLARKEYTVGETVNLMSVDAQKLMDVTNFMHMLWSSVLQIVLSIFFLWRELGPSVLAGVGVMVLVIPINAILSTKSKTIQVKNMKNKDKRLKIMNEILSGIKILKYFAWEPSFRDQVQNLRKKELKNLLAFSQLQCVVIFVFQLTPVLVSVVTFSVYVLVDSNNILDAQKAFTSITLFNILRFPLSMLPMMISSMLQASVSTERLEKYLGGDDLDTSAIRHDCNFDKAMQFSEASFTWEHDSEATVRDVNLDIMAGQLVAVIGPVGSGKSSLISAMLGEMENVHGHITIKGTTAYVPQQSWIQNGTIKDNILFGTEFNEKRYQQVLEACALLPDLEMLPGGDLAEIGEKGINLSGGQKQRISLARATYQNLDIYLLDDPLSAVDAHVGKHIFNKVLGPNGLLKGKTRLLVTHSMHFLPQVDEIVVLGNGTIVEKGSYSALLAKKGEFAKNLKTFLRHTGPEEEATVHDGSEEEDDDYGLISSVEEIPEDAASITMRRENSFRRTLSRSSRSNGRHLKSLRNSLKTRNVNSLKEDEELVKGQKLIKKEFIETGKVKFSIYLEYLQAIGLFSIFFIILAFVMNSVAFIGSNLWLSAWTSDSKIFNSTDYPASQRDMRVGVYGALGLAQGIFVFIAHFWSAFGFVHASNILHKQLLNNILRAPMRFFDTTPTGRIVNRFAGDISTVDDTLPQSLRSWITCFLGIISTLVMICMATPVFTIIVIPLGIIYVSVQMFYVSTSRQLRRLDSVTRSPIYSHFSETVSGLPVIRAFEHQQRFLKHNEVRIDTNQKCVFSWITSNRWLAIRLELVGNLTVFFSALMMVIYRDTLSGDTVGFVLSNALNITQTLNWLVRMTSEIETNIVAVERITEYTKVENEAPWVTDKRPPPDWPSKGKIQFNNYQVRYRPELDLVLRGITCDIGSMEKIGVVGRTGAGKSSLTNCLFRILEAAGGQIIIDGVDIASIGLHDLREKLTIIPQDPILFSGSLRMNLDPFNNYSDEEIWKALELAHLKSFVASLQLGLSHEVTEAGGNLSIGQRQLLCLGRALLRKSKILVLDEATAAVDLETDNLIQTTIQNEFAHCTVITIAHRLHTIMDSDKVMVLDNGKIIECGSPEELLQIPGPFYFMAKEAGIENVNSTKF
Description: Effect on human MRP2-mediated estradiol-17-beta-glucuronide transport in Sf9 cells inverted membrane vesicles relative to control

| Structure (SMILES) | activity [1] | activity (sf9) |
| --- | --- | --- |
| CCC1=C(C)CN(C(=O)NCCc2ccc(S(=O)(=O)NC(=O)N[C@H]3CC[C@H](C)CC3)cc2)C1=O [GLIMEPIRIDE] | 142% |  |
| Cc1cnc(C(=O)NCCc2ccc(S(=O)(=O)NC(=O)NC3CCCCC3)cc2)cn1 [GLIPIZIDE] | 81% |  |
| N[C@@H](CCC(=O)N[C@@H](CS)C(=O)NCC(=O)O)C(=O)O [GLUTATHIONE] |  | 116% |
| COc1ccc(Cl)cc1C(=O)NCCc1ccc(S(=O)(=O)NC(=O)NC2CCCCC2)cc1 [GLYBURIDE] | 304% |  |
| CC1(C)[C@@H](O[C@H]2O[C@H](C(=O)O)[C@@H](O)[C@H](O)[C@H]2O[C@@H]2O[C@H](C(=O)O)[C@@H](O)[C@H](O)[C@H]2O)CC[C@]2(C)[C@H]3C(=O)C=C4[C@@H]5C[C@@](C)(C(=O)O)CC[C@]5(C)CC[C@@]4(C)[C@]3(C)CC[C@@H]12 [GLYCYRRHIZIN] | 5% |  |
| O=C(CCCN1CCC(O)(c2ccc(Cl)cc2)CC1)c1ccc(F)cc1 [HALOPERIDOL] | 106% |  |
| NS(=O)(=O)c1cc2c(cc1Cl)NCNS2(=O)=O [HYDROCHLOROTHIAZIDE] | 94% |  |
| C[C@]12CCC(=O)C=C1CC[C@@H]1[C@@H]2[C@@H](O)C[C@@]2(C)[C@H]1CC[C@]2(O)C(=O)CO [HYDROCORTISONE] | 124% |  |
| CC(C)Cc1ccc(C(C)C(=O)O)cc1 (centres undefined) [IBUPROFEN] | 130% |  |
| Cc1ccc(NC(=O)c2ccc(CN3CCN(C)CC3)cc2)cc1Nc1nccc(-c2cccnc2)n1 [IMATINIB MESYLATE] | 74% |  |
| CC1(C)C(/C=C/C=C/C=C/C=C2\N(CCCCS(=O)(=O)O)c3ccc4ccccc4c3C2(C)C)=[N+](CCCCS(=O)(=O)[O-])c2ccc3ccccc3c21 [INDOCYANINE GREEN] | 5% |  |
| COc1ccc2c(c1)c(CC(=O)O)c(C)n2C(=O)c1ccc(Cl)cc1 [INDOMETHACIN] | 308% |  |
| CCc1c2c(nc3ccc(OC(=O)N4CCC(N5CCCCC5)CC4)cc13)-c1cc3c(c(=O)n1C2)COC(=O)[C@]3(O)CC [IRINOTECAN] | 101% |  |
| NNC(=O)c1ccncc1 [ISONIAZID] | 96% |  |
| COC(=O)C1=C(C)NC(C)=C(C(=O)OC(C)C)C1c1cccc2nonc12 (centres undefined) [ISRADIPINE] | 46% |  |
| CC(=O)N1CCN(c2ccc(OC[C@H]3CO[C@](Cn4ccnc4)(c4ccc(Cl)cc4Cl)O3)cc2)CC1 [KETOCONAZOLE] | 76% |  |
| CC(C(=O)O)c1cccc(C(=O)c2ccccc2)c1 (centres undefined) [KETOPROFEN] | 120% |  |
| Cc1c(OCC(F)(F)F)ccnc1C[S+]([O-])c1nc2ccccc2[nH]1 (centres undefined) [LANSOPRAZOLE] | 34% |  |
| Nc1nc2c(c(=O)[nH]1)N(C=O)C(CNc1ccc(C(=O)N[C@@H](CCC(=O)O)C(=O)O)cc1)CN2 (some centres undefined) [LEUCOVORIN] | 103% |  |
| NCCCC[C@H](N[C@@H](CCc1ccccc1)C(=O)O)C(=O)N1CCC[C@H]1C(=O)O [LISINOPRIL ANHYDROUS] | 43% |  |

| Structure (SMILES) | activity [1] | activity (sf9) |
| --- | --- | --- |
| CN(C)C(=O)C(CCN1CCC(O)(c2ccc(Cl)cc2)CC1)(c1ccccc1)c1ccccc1 [LOPERAMIDE] | 46% |  |
| Cc1cccc(C)c1OCC(=O)N[C@@H](Cc1ccccc1)[C@@H](O)C[C@H](Cc1ccccc1)NC(=O)[C@H](C(C)C)N1CCCNC1=O [LOPINAVIR] |  | 33% |
| CCOC(=O)N1CCC(=C2c3ccc(Cl)cc3CCc3cccnc32)CC1 [LORATADINE] | 6% |  |
| CNCCCC12CCC(c3ccccc31)c1ccccc12 [MAPROTILINE] |  | 56% |
| Nc1ccc(O)c(C(=O)O)c1 [MESALAMINE] | 109% |  |
| CN(Cc1cnc2nc(N)nc(N)c2n1)c1ccc(C(=O)N[C@@H](CCC(=O)O)C(=O)O)cc1 [METHOTREXATE] |  | 130% |
| COCCc1ccc(OCC(O)CNC(C)C)cc1 (centres undefined) [METOPROLOL] | 72% |  |
| CC#C[C@]1(O)CC[C@H]2[C@@H]3CCC4=CC(=O)CCC4=C3[C@@H](c3ccc(N(C)C)cc3)C[C@@]21C [MIFEPRISTONE] | 134% |  |
| O=C1c2c(O)ccc(O)c2C(=O)c2c(NCCNCCO)ccc(NCCNCCO)c21 [MITOXANTRONE] | 175% |  |
| O=c1c(O)c(-c2ccc(O)cc2O)oc2cc(O)cc(O)c12 [MORIN] | 50% |  |
| C[C@]12CC[C@H]3[C@@H](CCC4=CC(=O)CC[C@@H]43)[C@@H]1CC[C@@H]2O [NANDROLONE] | 106% |  |
| COc1ccc2cc([C@H](C)C(=O)O)ccc2c1 [NAPROXEN] |  | 92% |
| O=C1C[C@@H](c2ccc(O)cc2)Oc2cc(O)cc(O)c21 [NARINGENIN] | 207% |  |
| Cc1ccnc2c1NC(=O)c1cccnc1N2C1CC1 [NEVIRAPINE] | 121% |  |
| COC(=O)C1=C(C)NC(C)=C(C(=O)OCCN(C)Cc2ccccc2)C1c1cccc([N+](=O)[O-])c1 (centres undefined) [NICARDIPINE] |  | 59% |
| CN1CCC[C@H]1c1cccnc1 [NICOTINE] |  | 101% |
| CNC(=O)c1cccnc1 [NICOTINYL METHYLAMIDE] | 101% |  |
| CCOC(=O)C1=C(C)NC(C)=C(C(=O)OC)C1c1cccc([N+](=O)[O-])c1 (centres undefined) [NITRENDIPINE] | 224% |  |
| O=C1CN(/N=C/c2ccc([N+](=O)[O-])o2)C(=O)N1 [NITROFURANTOIN] |  | 94% |
| CNC(=C[N+](=O)[O-])NCCSCc1csc(CN(C)C)n1 [NIZATIDINE] | 110% |  |

| Structure (SMILES) | activity [1] | activity (sf9) |
| --- | --- | --- |
| COc1ccc2c(c1OC)C(=O)O[C@@H]2[C@H]1c2c(cc3c(c2OC)OCO3)CCN1C [NOSCAPINE] | 78% |  |
| CC1COc2c(N3CCN(C)CC3)c(F)cc3c(=O)c(C(=O)O)cn1c23 (centres undefined) [OFLOXACIN] | 83% |  |
| COc1ccc2[nH]c([S+]([O-])Cc3ncc(C)c(OC)c3C)nc2c1 (centres undefined) [OMEPRAZOLE] | 101% |  |
| O=C1Nc2ccc(Cl)cc2C(c2ccccc2)=NC1O (centres undefined) [OXAZEPAM] | 103% |  |
| CC1(C)S[C@@H]2[C@H](NC(=O)Cc3ccccc3)C(=O)N2[C@H]1C(=O)O [PENICILLIN G] | 76% |  |
| CCOc1ccc(NC(C)=O)cc1 [PHENACETIN] | 83% |  |
| S=C=NCCc1ccccc1 [PHENETHYLISOTHIOCYANATE] | 94% |  |
| [H]/N=C(/N)N/C(=N/[H])NCCc1ccccc1 [PHENFORMIN] | 88% |  |
| CCC1(c2ccccc2)C(=O)NC(=O)NC1=O [PHENOBARBITAL] | 98% |  |
| O=C1NC(=O)C(c2ccccc2)(c2ccccc2)N1 [PHENYTOIN] | 125% |  |
| CN1C(C(=O)Nc2ccccn2)=C(O)c2ccccc2S1(=O)=O [PIROXICAM] | 100% |  |
| CCCCOc1ccc(OCCCN2CCOCC2)cc1 [PRAMOXINE] | 69% |  |
| C[C@]12CC[C@H](OS(=O)(=O)O)CC1=CC[C@@H]1[C@@H]2CC[C@]2(C)C(=O)CC[C@@H]12 [PRASTERONE SULFURIC ACID] | 395% |  |
| CC[C@H](C)C(=O)O[C@H]1C[C@H](O)C=C2C=C[C@H](C)[C@H](CC[C@@H](O)C[C@@H](O)CC(=O)O)[C@H]21 [PRAVASTATIN] | 135% |  |
| COc1cc2nc(N3CCN(C(=O)c4ccco4)CC3)nc(N)c2cc1OC [PRAZOSIN] | 78% |  |
| C[C@]12C=CC(=O)C=C1CC[C@@H]1[C@@H]2[C@@H](O)C[C@@]2(C)[C@H]1CC[C@]2(O)C(=O)CO [PREDNISOLONE] | 110% |  |
| C[C@]12C=CC(=O)C=C1CC[C@@H]1[C@@H]2C(=O)C[C@@]2(C)[C@H]1CC[C@]2(O)C(=O)CO [PREDNISONE] | 51% |  |
| CCCN(CCC)S(=O)(=O)c1ccc(C(=O)O)cc1 [PROBENECID] | 110% |  |
| O[C@](CCN1CCCC1)(c1ccccc1)C1CCCCC1 [PROCYCLIDINE] | 62% |  |
